Reference: article PMC12073449, “Development of a Mechanism of Action-Reflective Cell-Based Reporter Gene Assay for Measuring Bioactivities of Therapeutic Glucagon-like Peptide-2 Analogues” (Molecules, 2025)
Ends that are not written are not given here.

Test system: HEK293-GLP-2R-Luc cells

HGEGTFSSELATILDALAARDFINWLIATKITDKKKKKK-NH2 [glepaglutide]
log2 (TD/Ctrl) CYP1B1: 1.052 | log2 (TD/Ctrl) CYP4V2: −1.198 | log2 (TD/Ctrl) CYP4 × 1: −1.963 | log2 (TD/Ctrl) TRPV1 (Qvalue 0.001125): −1.038 | log2 (TD/Ctrl) NEK8 (Qvalue 0.001147): −1.057 | log2 (TD/Ctrl) METTL25 (Qvalue 0.001214): −1.045 | log2 (TD/Ctrl) ITGA8 (Qvalue 0.001396): −1.102 | log2 (TD/Ctrl) UBOX5 (Qvalue 0.00141): 1.051 | log2 (TD/Ctrl) CC2D2A (Qvalue 0.001438): −1.1174 | log2 (TD/Ctrl) DERL3 (Qvalue 0.001478): −1.237 | log2 (TD/Ctrl) ADAM12 (Qvalue 0.001549): 1.112 | log2 (TD/Ctrl) RBPMS2 (Qvalue 0.001565): 1.069 | log2 (TD/Ctrl) RBM11 (Qvalue 0.001608): 1.143 | log2 (TD/Ctrl) SLCO2A1 (Qvalue 0.001637): 1.773 | log2 (TD/Ctrl) AMH (Qvalue 0.001638): −1.122 | log2 (TD/Ctrl) EMP1 (Qvalue 0.001666): 1.518 | log2 (TD/Ctrl) RNLS (Qvalue 0.001684): 2.251 | log2 (TD/Ctrl) AATK (Qvalue 0.001714): 1.156 | log2 (TD/Ctrl) ZSWIM4 (Qvalue 0.001797): 1.054 | log2 (TD/Ctrl) NGEF (Qvalue 0.001858): 1.549 | log2 (TD/Ctrl) LOC124901228 (Qvalue 0.002022): −1.299 | log2 (TD/Ctrl) HILPDA (Qvalue 0.00213): −1.215 | log2 (TD/Ctrl) GPRASP3 (Qvalue 0.002224): −1.474 | log2 (TD/Ctrl) SRGAP3 (Qvalue 0.002313): −1.063 | log2 (TD/Ctrl) PPEF1 (Qvalue 0.002369): 1.543 | log2 (TD/Ctrl) BOK (Qvalue 0.002402): 1.599 | log2 (TD/Ctrl) PRR7 (Qvalue 0.002734): 1.209 | log2 (TD/Ctrl) SAT1 (Qvalue 0.002832): 2.416 | log2 (TD/Ctrl) SDHAF4 (Qvalue 0.002952): 1.018 | log2 (TD/Ctrl) IL7R (Qvalue 0.003482): 2.4 | log2 (TD/Ctrl) RHOB (Qvalue 0.003482): 2.852 | log2 (TD/Ctrl) CCDC61 (Qvalue 0.003634): 1.663 | log2 (TD/Ctrl) H2BC21 (Qvalue 0.004109): 1.259 | log2 (TD/Ctrl) CXCL12 (Qvalue 0.004272): −2.422 | log2 (TD/Ctrl) UGT3A1 (Qvalue 0.004706): 3.069 | log2 (TD/Ctrl) MYPN (Qvalue 0.005296): 2.401 | log2 (TD/Ctrl) PTPRN (Qvalue 0.005327): 3.046 | log2 (TD/Ctrl) RHBDF1 (Qvalue 0.005404): 1.083 | log2 (TD/Ctrl) KLF2 (Qvalue 0.005739): 1.928 | log2 (TD/Ctrl) SH2D2A (Qvalue 0.005953): 2.922 | log2 (TD/Ctrl) SYT4 (Qvalue 0.005991): 2.338 | log2 (TD/Ctrl) NTRK2 (Qvalue 0.006147): 1.454 | log2 (TD/Ctrl) PLPP2 (Qvalue 0.006233): 1.309 | log2 (TD/Ctrl) ATG16L2 (Qvalue 0.006489): 1.087 | log2 (TD/Ctrl) ASGR1 (Qvalue 0.00679): 2.135 | log2 (TD/Ctrl) DHRS9 (Qvalue 0.007207): 2.367 | log2 (TD/Ctrl) SH2D5 (Qvalue 0.00738): 1.053 | log2 (TD/Ctrl) SLC30A3 (Qvalue 0.007467): 1.182 | log2 (TD/Ctrl) SHANK2 (Qvalue 0.007984): 2.035 | log2 (TD/Ctrl) NAA80 (Qvalue 0.008009): 1.249 | log2 (TD/Ctrl) CLIP2 (Qvalue 0.008212): 1.052 | log2 (TD/Ctrl) LOC128125822 (Qvalue 0.008527): 2.711 | log2 (TD/Ctrl) RND1 (Qvalue 0.008622): 1.057 | log2 (TD/Ctrl) SH3RF2 (Qvalue 0.008648): 1.516 | log2 (TD/Ctrl) DUSP2 (Qvalue 0.008669): 3.424 | log2 (TD/Ctrl) MAGED4 (Qvalue 0.009809): −1.159 | log2 (TD/Ctrl) MAP6 (Qvalue 0.009857): 1.691 | log2 (TD/Ctrl) TMEM225B (Qvalue 0.010366): 1.448 | log2 (TD/Ctrl) CHRD (Qvalue 0.010428): 1.261 | log2 (TD/Ctrl) FNTB (Qvalue 0.011191): −1.039 | log2 (TD/Ctrl) MARVELD3 (Qvalue 0.011267): 1.031 | log2 (TD/Ctrl) FSTL4 (Qvalue 0.011445): 1.312 | log2 (TD/Ctrl) POC1B-GALNT4 (Qvalue 0.011547): −1.319 | log2 (TD/Ctrl) GDPGP1 (Qvalue 0.011565): −1.43 | log2 (TD/Ctrl) CREG2 (Qvalue 0.012071): 1.949 | log2 (TD/Ctrl) CERS4 (Qvalue 0.01208): 1.131 | log2 (TD/Ctrl) ANKRD1 (Qvalue 0.012462): 2.953 | log2 (TD/Ctrl) PLEKHN1 (Qvalue 0.012462): 2.21 | log2 (TD/Ctrl) KRT75 (Qvalue 0.012583): 2.099 | log2 (TD/Ctrl) ALDH1L2 (Qvalue 0.012744): 1.303 | log2 (TD/Ctrl) GUCA1B (Qvalue 0.013456): 1.026 | log2 (TD/Ctrl) SH2D3A (Qvalue 0.013825): 1.146 | log2 (TD/Ctrl) CATSPERE (Qvalue 0.013837): −2.496 | log2 (TD/Ctrl) TFEB (Qvalue 0.014032): 1.085 | log2 (TD/Ctrl) SCN2A (Qvalue 0.014161): −2.494 | log2 (TD/Ctrl) FAM47E-STBD1 (Qvalue 0.014365): 6.132 | log2 (TD/Ctrl) IL11 (Qvalue 0.014439): 2.543 | log2 (TD/Ctrl) ICOSLG (Qvalue 0.015122): 1.337 | log2 (TD/Ctrl) HHIP (Qvalue 0.016047): 1.114 | log2 (TD/Ctrl) COL15A1 (Qvalue 0.016322): 2.733 | log2 (TD/Ctrl) ADAMTSL1 (Qvalue 0.016921): 1.769 | log2 (TD/Ctrl) AJM1 (Qvalue 0.017304): −1.327 | log2 (TD/Ctrl) RASGRP3 (Qvalue 0.017723): 1.426 | log2 (TD/Ctrl) ZNF233 (Qvalue 0.018109): −1.102 | log2 (TD/Ctrl) ADM2 (Qvalue 0.018318): 1.127 | log2 (TD/Ctrl) FMNL1 (Qvalue 0.018333): 1.446 | log2 (TD/Ctrl) PHF24 (Qvalue 0.018911): 1.839 | log2 (TD/Ctrl) MAP2 (Qvalue 0.019619): −1.138 | log2 (TD/Ctrl) BCL3 (Qvalue 0.020272): 1.728 | log2 (TD/Ctrl) EXO5 (Qvalue 0.020878): −1.023 | log2 (TD/Ctrl) POLN (Qvalue 0.020952): −1.364 | log2 (TD/Ctrl) C20orf204 (Qvalue 0.021231): −1.777
